This is an account of results in patent US12030879B2, “Sulfonyl acetamides as NLRP3 inhibitors” (Inflazome Limited, priority 2018, dated 2024).

Counter-ions that a name gives are not always drawn.

T1 sequence (Q96P20 whole entry): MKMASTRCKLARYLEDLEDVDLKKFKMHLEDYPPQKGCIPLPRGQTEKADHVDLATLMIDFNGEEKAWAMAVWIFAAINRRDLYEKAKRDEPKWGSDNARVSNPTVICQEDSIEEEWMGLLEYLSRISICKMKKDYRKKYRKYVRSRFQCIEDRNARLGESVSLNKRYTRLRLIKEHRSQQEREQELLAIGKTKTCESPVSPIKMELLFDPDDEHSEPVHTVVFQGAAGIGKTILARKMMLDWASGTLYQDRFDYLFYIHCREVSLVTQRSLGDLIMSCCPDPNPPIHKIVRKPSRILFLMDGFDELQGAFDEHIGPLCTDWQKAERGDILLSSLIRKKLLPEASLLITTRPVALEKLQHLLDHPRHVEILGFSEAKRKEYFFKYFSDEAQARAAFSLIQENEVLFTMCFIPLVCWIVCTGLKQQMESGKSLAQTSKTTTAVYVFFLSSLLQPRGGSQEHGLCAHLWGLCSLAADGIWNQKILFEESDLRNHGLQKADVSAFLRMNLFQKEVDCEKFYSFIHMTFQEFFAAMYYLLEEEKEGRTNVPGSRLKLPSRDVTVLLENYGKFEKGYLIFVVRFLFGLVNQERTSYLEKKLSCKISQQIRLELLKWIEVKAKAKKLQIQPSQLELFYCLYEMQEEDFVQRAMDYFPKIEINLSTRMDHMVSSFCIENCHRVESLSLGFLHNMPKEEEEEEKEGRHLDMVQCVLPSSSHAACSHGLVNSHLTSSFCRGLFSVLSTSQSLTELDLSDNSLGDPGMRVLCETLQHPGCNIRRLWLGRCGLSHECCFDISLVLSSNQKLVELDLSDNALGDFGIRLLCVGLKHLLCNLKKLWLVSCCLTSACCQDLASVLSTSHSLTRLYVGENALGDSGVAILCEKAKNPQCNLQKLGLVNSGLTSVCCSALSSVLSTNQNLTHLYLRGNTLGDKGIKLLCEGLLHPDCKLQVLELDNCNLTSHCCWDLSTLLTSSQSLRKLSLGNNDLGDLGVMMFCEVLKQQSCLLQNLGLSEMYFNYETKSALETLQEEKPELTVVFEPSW

This assay has as its target T1, NLRP3 (Homo sapiens, UniProt Q96P20).
T1 construct: Seed THP-1 cells (25,000 cells/well) containing 1.0 μg/ml LPS in 40 μl of RPMI medium; host or cells: THP-1 cells
The assay is described as follows: THP-1 cells pyroptosis assay. The settings on record: LPS 1 μg/ml, compound 3 hrs, nigericin 5 μM 1 hr, resazurin readout. It is filed as cell-based. On the procedure: THP-1 cells (ATCC #TIB-202) were grown in RPMI containing L-glutamine (Gibco #11835) supplemented with 1 mM sodium pyruvate (Sigma #S8636) and penicillin (100 units/ml)/streptomycin (0.1 mg/ml) (Sigma #P4333) in 10% Fetal Bovine Serum (FBS) (Sigma #F0804). The cells were routinely passaged and grown to confluency (10^6 cells/ml). On the day of the experiment, THP-1 cells were harvested and resuspended into RPMI medium (without FBS). The cells were then counted and viability (>90%) checked by Trypan blue (Sigma #T8154). Appropriate dilutions were made to give a concentration of 625,000 cells/ml. To this diluted cell solution was added LPS (Sigma #L4524) to give a 1 μg/ml Final Assay Concentration (FAC). 40 μl of the final preparation was aliquoted into each well of a 96-well plate. The plate thus prepared was used for compound screening.
The following method step-by-step assay was followed for compound screening. • 1. Seed THP-1 cells (25,000 cells/well) containing 1.0 μg/ml LPS in 40 μl of RPMI medium (without FBS) in 96-well, black walled, clear bottom cell culture plates coated with poly-D-lysine (VWR #734-0317) • 2. Add 5 μl compound (8 points half-log dilution, with 10 μM top dose) or vehicle (DMSO 0.1% FAC) to the appropriate wells • 3. Incubate for 3 hrs at 37° C., 5% CO2 • 4. Add 5 μl nigericin (Sigma #N7143) (FAC 5 μM) to all wells • 5. Incubate for 1 hr at 37° C., 5% CO2 • 6. At the end of the incubation period, spin plates at 300×g for 3 mins and remove supernatant • 7. Then add 50 μl of resazurin (Sigma #R7017)(FAC 100 μM resazurin in RPMI medium without FBS) and incubate plates for a further 1-2 hrs at 37° C. and 5% CO2 • 8. Plates were read in an Envision reader at Ex 560 nm and Em 590 nm • 9. IC50 data is fitted to a non-linear regression equation (log inhibitor vs response-variable slope 4-parameters) 96-well Plate Map
A general note: Resazurin is reduced to fluorescent resorufin, in cell work by metabolically active cells.
Broadly, the IC50 is the concentration at which inhibition is half-maximal. High values mean lower potency, low ones higher potency. Molecule `COc1cc(-c2cc(F)cc(C(C)C)c2CC(=O)NS(=O)(=O)c2ccc(=O)n(C)c2)ccn1` [Example 1, 2-(4-Fluoro-2-isopropyl-6-(2-methoxypyridin-4-yl)phenyl)-N-((1-methyl-6-oxo-,6-dihydropyridin-3-yl)sulfonyl)acetamide, potassium salt] registered a concentration for half-maximal inhibition (IC50) of at most 10 µM.

Take `COc1cc(-c2cc(F)cc(C(C)C)c2CC(=O)NS(=O)(=O)c2ccc(=O)n(C(C)C)c2)ccn1` [Example 2, 2-(4-Fluoro-2-isopropyl-6-(2-methoxypyridin-4-yl)phenyl)-N-((1-isopropyl-6-oxo-,6-dihydropyridin-3-yl)sulfonyl)acetamide, potassium salt]: the IC50 is at most 5 µM.

The molecule `COc1cc(-c2cc(F)cc(C(C)C)c2CC(=O)NS(=O)(=O)c2cn(C)c(=O)n(C)c2=O)ccn1` [Example 3, N-((1,3-Dimethyl-2,4-dioxo-1,2,3,4-tetrahydropyrimidin-5-yl)sulfonyl)-2-(4-fluoro-2-isopropyl-6-(2-methoxypyridin-4-yl)phenyl)acetamide] returned a half-inhibitory concentration (IC50) of at most 1 µM.

With `COc1cc(-c2cc(F)cc(C(C)C)c2CC(=O)NS(=O)(=O)c2ccc(Cl)cc2F)ccn1` [Example 4], the IC50 was at most 1 µM.

The molecule `COc1cc(-c2cc(F)cc(C(C)C)c2CC(=O)NS(=O)(=O)c2cccc(Cl)c2)ccn1` [Example 5] displayed an IC50 of at most 1 µM.

Take `COc1cc(-c2cc(F)cc(C(C)C)c2CC(=O)NS(=O)(=O)c2cccc(Cl)c2C)ccn1` [Example 6]: the half-inhibitory concentration (IC50) is at most 10 µM.

As for `COc1cc(-c2cc(F)cc(C(C)C)c2CC(=O)NS(=O)(=O)c2ccccc2Cl)ccn1` [Example 7], the IC50 is at most 5 µM.

On to `COc1cc(-c2cc(F)cc(C(C)C)c2CC(=O)NS(=O)(=O)c2sccc2C(C)(C)O)ccn1` [Example 8], for which the IC50 was at most 10 µM.

The molecule `COC(=O)c1ccc(S(=O)(=O)NC(=O)Cc2c(-c3ccnc(OC)c3)cc(F)cc2C(C)C)cc1Cl` [Example 9] had a half-inhibitory concentration (IC50) of at most 5 µM.

With `CC(C)c1cc(F)cc(-c2ccc(Cl)nc2)c1CC(=O)NS(=O)(=O)c1cc(C(C)(C)O)cs1` [Example 10], the IC50 is at most 5 µM.

`COc1cc(-c2cc(F)cc(C(C)C)c2CC(=O)NS(=O)(=O)c2ccc(Cl)c(Cl)c2)ccn1` [Example 11] gave an IC50 of at most 1 µM.

Molecule `COc1cc(-c2cc(F)cc(C(C)C)c2CC(=O)NS(=O)(=O)c2ccc(Cl)cc2OC)ccn1` [Example 12] registered a 50% inhibitory concentration (IC50) of at most 1 µM.

The molecule `COc1cc(-c2cc(F)cc(C(C)C)c2CC(=O)NS(=O)(=O)c2ccc(Cl)cc2Cl)ccn1` [Example 13] gave a half-inhibitory concentration (IC50) of at most 1 µM.

`COc1cc(-c2cc(F)cc(C(C)C)c2CC(=O)NS(=O)(=O)c2ccc(N(C)C)cc2C)ccn1` [Example 14] returned a half-maximal inhibitory concentration (IC50) of at most 0.5 µM.

`COc1cc(-c2cc(F)cc(C(C)C)c2CC(=O)NS(=O)(=O)c2ccc(C(=O)N(C)C)cc2C)ccn1` [Example 15]: the IC50 is at most 5 µM.

Take `CC(C)c1cc(F)cc(-c2ccncc2)c1CC(=O)NS(=O)(=O)c1ccc(Cl)cc1` [Example 16]: the half-maximal inhibitory concentration (IC50) is at most 5 µM.

With `CC(C)c1cc(F)cc(-c2cccnc2)c1CC(=O)NS(=O)(=O)c1ccc(Cl)cc1` [Example 17], the IC50 was at most 5 µM.

The molecule `COc1cc(-c2cc(F)cc(C(C)C)c2CC(=O)NS(=O)(=O)c2ccc(B(O)O)cc2)ccn1` [Example 18] showed an IC50 of at most 10 µM.

Turning to `COc1cc(-c2cc(F)cc(C(C)C)c2CC(=O)NS(=O)(=O)c2ccc(Br)cc2)ccn1` [Example 19], the IC50 was at most 1 µM.

Molecule `COc1cc(-c2ccc3c(c2CC(=O)NS(=O)(=O)c2cc(C(C)(C)O)cs2)CCC3)ccn1` [Example 20, N-((4-(2-Hydroxypropan-2-yl)thiophen-2-yl)sulfonyl)-2-(5-(2-methoxypyridin-4-yl)-2,3-dihydro-1H-inden-4-yl)acetamide] registered a 50% inhibitory concentration (IC50) of at most 1 µM.

`CC(C)n1ccc(S(=O)(=O)NC(=O)Cc2c(-c3ccnc(C#N)c3)ccc3c2CCC3)n1` [Example 21, 2-(5-(2-Cyanopyridin-4-yl)-2,3-dihydro-H-inden-4-yl)-N-((1-isopropyl-1H-pyrazol-3-yl)sulfonyl)acetamide] registered an IC50 of at most 10 µM.

In the case of `CC(C)(O)c1csc(S(=O)(=O)NC(=O)Cc2c(-c3ccnc(C#N)c3)ccc3c2CCC3)c1` [Example 22, 2-(5-(2-Cyanopyridin-4-yl)-2,3-dihydro-1H-inden-4-yl)-N-((4-(2-hydroxypropan-2-yl)thiophen-2-yl)sulfonyl)acetamide], the 50% inhibitory concentration (IC50) was at most 5 µM.

Molecule `COc1cc(-c2cc(F)cc(C(C)C)c2CC(=O)NS(=O)(=O)c2ccn(C(C)C)n2)ccn1` [Example 23, 2-(4-Fluoro-2-isopropyl-6-(2-methoxypyridin-4-yl)phenyl)-N-((1-isopropyl-1H-pyrazol-3-yl)sulfonyl)acetamide, potassium salt] gave a half-inhibitory concentration (IC50) of at most 5 µM.

On to `CC(C)c1cc(F)cc(-c2cccnc2)c1CC(=O)NS(=O)(=O)c1ccn(C(C)C)n1` [Example 24, 2-(4-Fluoro-2-isopropyl-6-(pyridin-3-yl)phenyl)-N-((1-isopropyl-1H-pyrazol-3-yl)sulfonyl)acetamide, potassium salt], for which the IC50 is at most 10 µM.

`CC(C)c1cc(F)cc(-c2cccnc2)c1CC(=O)NS(=O)(=O)c1cc(C(C)(C)O)cs1` [Example 25, 2-(4-Fluoro-2-isopropyl-6-(pyridin-3-yl)phenyl)-N-((4-(2-hydroxypropan-2-yl)thiophen-2-yl)sulfonyl)acetamide]: the IC50 is at most 0.5 µM.

For `COc1cc(-c2cc(F)cc(C(C)C)c2CC(=O)NS(=O)(=O)c2cc(C(C)(C)O)cs2)ccn1` [Example 26, 2-(4-Fluoro-2-isopropyl-6-(2-methoxypyridin-4-yl)phenyl)-N-((4-(2-hydroxypropan-2-yl)thiophen-2-yl)sulfonyl)acetamide], the IC50 is at most 0.5 µM.

Turning to `CC(C)c1cc(F)cc(-c2ccncc2)c1CC(=O)NS(=O)(=O)c1cc(C(C)(C)O)cs1` [Example 27, 2-(4-Fluoro-2-isopropyl-6-(pyridin-4-yl)phenyl)-N-((4-(2-hydroxypropan-2-yl)thiophen-2-yl)sulfonyl)acetamide, potassium salt], the IC50 is at most 0.5 µM.

`CCOC(=O)c1cc(S(=O)(=O)NC(=O)Cc2c(-c3ccnc(OC)c3)cc(F)cc2C(C)C)nn1C` [Example 28, Ethyl 3-(N-(2-(4-fluoro-2-isopropyl-6-(2-methoxypyridin-4-yl)phenyl)acetyl)sulfamoyl)-1-methyl-1H-pyrazole-5-carboxylate]: the IC50 was at most 5 µM.

`COc1cc(-c2cc(F)cc(C(C)C)c2CC(=O)NS(=O)(=O)c2ccc3c(c2)C(C)(C)OC3=O)ccn1` [Example 29, N-((3,3-Dimethyl-1-oxo-1,3-dihydroisobenzofuran-5-yl)sulfonyl)-2-(4-fluoro-2-isopropyl-6-(2-methoxypyridin-4-yl)phenyl) acetamide] showed a half-maximal inhibitory concentration (IC50) of at most 5 µM.

The molecule `COc1cc(-c2cc(F)cc(C(C)C)c2CC(=O)NS(=O)(=O)c2cccc(C#N)c2)ccn1` [Example 30, N-((3-Cyanophenyl)sulfonyl)-2-(4-fluoro-2-isopropyl-6-(2-methoxypyridin-4-yl)phenyl)acetamide] registered an IC50 of at most 5 µM.

Take `COc1cc(-c2cc(F)cc(C(C)C)c2CC(=O)NS(=O)(=O)c2ccc(CN(C)C)cc2)ccn1` [Example 31, N-((4-((Dimethylamino)methyl)phenyl)sulfonyl)-2-(4-fluoro-2-isopropyl-6-(2-methoxypyridin-4-yl)phenyl)acetamide, potassium salt]: the 50% inhibitory concentration (IC50) was at most 5 µM.
